Laboratory results reported in the supplement of paper PMC11061612.

Tests used:
Experiment in all cases: combination Emax (second highest fraction inhibited in the dose matrix, 72 h); higher = more inhibition; extreme values may be limits of the assay
[1] = test system: EPLC-272H (Other Solid Carcinomas)
Procedure, shortened: (§1)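 Cell lines in DMEM/F12 or RPMI with 10% FBS were plated in 1536-well plates, held 24 hours at 37°C, 5% CO2, then given two-drug dose matrices for 72 hours (DMSO typically 0.2%). Viability was read by CellTiter-Glo 2.0 luminescence and scaled as inhibition from 0 (vehicle wells) to 1 (blank wells). Combination Emax is the second-highest inhibition in the matrix; Bliss excess is observed combination effect minus expected EA + EB − EA·EB, EA and EB being single-agent effects.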

[2] = test system: LU-165 (Small Cell Lung Carcinoma)
Procedure, shortened: as §1

[3] = test system: SW620 (Colorectal Carcinoma)
Procedure, shortened: as §1

PEO1 (Ovarian Carcinoma) = test system: PEO1 (Ovarian Carcinoma)
Procedure, shortened: as §1

KP-N-YN (Neuroblastoma) = test system: KP-N-YN (Neuroblastoma)
Procedure, shortened: as §1

[4] = test system: HCC1428 (Breast Carcinoma)
Procedure, shortened: as §1

[5] = test system: MDA-MB-436 (Breast Carcinoma)
Procedure, shortened: as §1

EW-7 (Ewing's Sarcoma) = test system: EW-7 (Ewing's Sarcoma)
Procedure, shortened: as §1

COLO-792 (Melanoma) = test system: COLO-792 (Melanoma)
Procedure, shortened: as §1

EW-16 (Ewing's Sarcoma) = test system: EW-16 (Ewing's Sarcoma)
Procedure, shortened: as §1

[6] = test system: HCC1395 (Breast Carcinoma)
Procedure, shortened: as §1

[7] = test system: LS-411N (Colorectal Carcinoma)
Procedure, shortened: as §1

[8] = test system: MHH-ES-1 (Ewing's Sarcoma)
Procedure, shortened: as §1

EB2 (Burkitt's Lymphoma) = test system: EB2 (Burkitt's Lymphoma)
Procedure, shortened: as §1

[9] = test system: DMS-53 (Small Cell Lung Carcinoma)
Procedure, shortened: as §1

RH-41 (Rhabdomyosarcoma) = test system: RH-41 (Rhabdomyosarcoma)
Procedure, shortened: as §1

[10] = test system: GA-10 (Burkitt's Lymphoma)
Procedure, shortened: as §1

5637 (Bladder Carcinoma) = test system: 5637 (Bladder Carcinoma)
Procedure, shortened: as §1

[11] = test system: HT55 (Colorectal Carcinoma)
Procedure, shortened: as §1

[12] = test system: ESO26 (Esophageal Adenocarcinoma)
Procedure, shortened: as §1

SMILES	combination Emax [1]	combination Emax [2]	combination Emax [3]	combination Emax (PEO1 (Ovarian Carcinoma))	combination Emax (KP-N-YN (Neuroblastoma))	combination Emax [4]	combination Emax [5]	combination Emax (EW-7 (Ewing's Sarcoma))	combination Emax (COLO-792 (Melanoma))	combination Emax (EW-16 (Ewing's Sarcoma))	combination Emax [6]	combination Emax [7]	combination Emax [8]	combination Emax (EB2 (Burkitt's Lymphoma))	combination Emax [9]	combination Emax (RH-41 (Rhabdomyosarcoma))	combination Emax [10]	combination Emax (5637 (Bladder Carcinoma))	combination Emax [11]	combination Emax [12]
NC1(C(=O)N[C@@H](CCO)c2ccc(Cl)cc2)CCN(c2ncnc3[nH]ccc23)CC1 [Capivasertib] + CC(C)n1c(=O)n(C)c2cnc3cc(F)c(-c4ccc(OCCCN5CCCCC5)nc4)cc3c21 [AZD1390] (first compound max 10 µM, 7x7, partner max 0.3 µM)	0.632	0.464	0.227	0.32	0.359	0.186	0.267	0.587	0.444	0.296	0.383	0.434	0.354	0.61	0.187	0.921	0.74	0.336	0.381	0.449
CN(C)CCCOc1ccc(-c2ccc3ncc4c(c3c2)n(C2CCOCC2)c(=O)n4C)cn1 [AZD0156] + O=C(c1cc(Cc2n[nH]c(=O)c3ccccc23)ccc1F)N1CCN(C(=O)C2CC2)CC1 [Olaparib] (first compound max 3 µM, partner max 3 µM)	0.503	0.21	0.337	0.122	–	0.228	0.205	0.524	0.294	0.412	0.315	0.349	0.801	0.496	0.255	0.586	0.741	0.439	0.209	0.206
Cc1c2c(nn1C)CSCc1cc(n(C)n1)CSc1cc(c3ccccc3c1)OCCCc1c(C(=O)O)n(C)c3c-2c(Cl)ccc13 [AZD5991] + Cc1cc2ncnn2cc1Nc1ncc2c(n1)n(C1CCOCC1)c(=O)n2C [AZD7648] (first compound max 1 µM, 7x7, partner max 10 µM)	0.94	0.265	0.213	0.178	0.228	0.977	0.226	0.652	1	0.299	0.545	0.116	0.688	0.465	0.554	1	0.851	0.233	0.242	0.198
COc1cccc(OCCCN)c1-c1cc(Nc2cnc(C#N)cn2)n[nH]1 [Prexasertib] + O=C(c1cc(Cc2n[nH]c(=O)c3ccccc23)ccc1F)N1CCN(C(=O)C2CC2)CC1 [Olaparib] (first compound max 1 µM, 7x7, partner max 10 µM)	0.894	0.424	0.711	0.388	0.845	0.622	0.509	0.955	0.322	0.793	0.88	0.498	0.954	0.916	0.314	0.95	0.987	0.852	0.65	0.56
CCc1c2c(nc3ccc(O)cc13)-c1cc3c(c(=O)n1C2)COC(=O)[C@]3(O)CC [SN-38] + O=C(c1cc(Cc2n[nH]c(=O)c3ccccc23)ccc1F)N1CCN(C(=O)C2CC2)CC1 [Olaparib] (first compound max 0.3 µM, 7x7, partner max 10 µM)	0.856	0.478	0.822	0.725	0.491	–	0.546	0.908	0.484	0.981	0.518	0.304	0.978	0.932	0.735	–	–	–	0.489	0.764
NC1(C(=O)N[C@@H](CCO)c2ccc(Cl)cc2)CCN(c2ncnc3[nH]ccc23)CC1 [Capivasertib] + Cn1cnc2c(F)c(Nc3ccc(Br)cc3Cl)c(C(=O)NOCCO)cc21 [Selumetinib] (first compound max 10 µM, 7x7, partner max 10 µM)	0.982	0.444	0.712	0.56	0.391	0.171	0.388	0.682	0.8	0.393	0.425	0.786	0.379	0.628	0.301	0.934	0.77	0.395	0.767	0.523
